ChEMBL document CHEMBL1201862, “PubChem BioAssay data set” (2004)
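How tested: cells in 96-well plates exposed to compound for 48 hours at five concentrations. GI50 marks 50% less growth.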 Calls of active or inactive are those of the source. Rule as the data show it: active = GI50 up to about 1.1 µM and inactive = higher.

How the values were obtained:
Assay in all cases: NCI tumour cell line growth inhibition, 48 h
U-251 = test system: U-251
OVCAR-8 = test system: OVCAR-8
SW-620 = test system: SW-620
SF-295 = test system: SF-295
SK-MEL-28 = test system: SK-MEL-28
SK-MEL-5 = test system: SK-MEL-5
K562 = test system: K562
HL-60 = test system: HL-60
M14 = test system: M14
HCC 2998 = test system: HCC 2998
NCI-H460 = test system: NCI-H460
SF-268 = test system: SF-268
DU-145 = test system: DU-145
SNB-75 = test system: SNB-75
UO-31 = test system: UO-31
MDA-MB-231 = test system: MDA-MB-231
SN12C = test system: SN12C
UACC-62 = test system: UACC-62
SR = test system: SR
HOP-92 = test system: HOP-92
EKVX = test system: EKVX
Hs-578T = test system: Hs-578T
RXF 393 = test system: RXF 393
A498 = test system: A498
HCT-15 = test system: HCT-15
UACC-257 = test system: UACC-257
OVCAR-3 = test system: OVCAR-3
SK-MEL-2 = test system: SK-MEL-2
Malme-3M = test system: Malme-3M
COLO 205 = test system: COLO 205
OVCAR-4 = test system: OVCAR-4
CCRF-CEM = test system: CCRF-CEM
BT-549 = test system: BT-549
PC-3 = test system: PC-3
T47D = test system: T47D
CAKI-1 = test system: CAKI-1
IGROV-1 = test system: IGROV-1
786-0 = test system: 786-0
OVCAR-5 = test system: OVCAR-5
TK-10 = test system: TK-10
MCF7 = test system: MCF7
LOX IMVI = test system: LOX IMVI
SNB-19 = test system: SNB-19
ACHN = test system: ACHN
MDA-MB-435 = test system: MDA-MB-435
SF-539 = test system: SF-539
NCI-H522 = test system: NCI-H522
KM12 = test system: KM12
NCI-H226 = test system: NCI-H226
MOLT-4 = test system: MOLT-4
NCI/ADR-RES = test system: NCI/ADR-RES
A549 = test system: A549
RPMI-8226 = test system: RPMI-8226
HCT-116 = test system: HCT-116
SK-OV-3 = test system: SK-OV-3
NCI-H23 = test system: NCI-H23
HOP-62 = test system: HOP-62
HT-29 = test system: HT-29
MDA-N = test system: MDA-N

C=C(C)[C@@H]1CCC2=C[C@H](C/C(C)=C\C3=CC(C)=C(O3)[C@H]1O)OC2=O
GI50 (U-251): 49.8 µM (inactive) | GI50 (OVCAR-8): 73.8 µM (inactive) | GI50 (SW-620): > 100 µM (inactive) | GI50 (SF-295): 80.9 µM (inactive) | GI50 (SK-MEL-28): > 100 µM (inactive) | GI50 (SK-MEL-5): > 100 µM (inactive) | GI50 (K562): > 100 µM (inactive) | GI50 (HL-60): > 100 µM (inactive) | GI50 (M14): > 100 µM (inactive) | GI50 (HCC 2998): > 100 µM (inactive) | GI50 (NCI-H460): > 100 µM (inactive) | GI50 (SF-268): > 100 µM (inactive) | GI50 (DU-145): > 100 µM (inactive) | GI50 (SNB-75): > 100 µM (inactive) | GI50 (UO-31): > 100 µM (inactive) | GI50 (MDA-MB-231): 25.8 µM (inactive) | GI50 (SN12C): 71.8 µM (inactive) | GI50 (UACC-62): 93.5 µM (inactive) | GI50 (SR): > 100 µM (inactive) | GI50 (HOP-92): 56.4 µM (inactive) | GI50 (EKVX): > 100 µM (inactive) | GI50 (Hs-578T): 65.5 µM (inactive) | GI50 (RXF 393): 35.6 µM (inactive) | GI50 (A498): > 100 µM (inactive) | GI50 (HCT-15): > 100 µM | GI50 (UACC-257): > 100 µM (inactive) | GI50 (OVCAR-3): > 100 µM (inactive) | GI50 (SK-MEL-2): > 100 µM (inactive) | GI50 (Malme-3M): > 100 µM (inactive) | GI50 (COLO 205): > 100 µM (inactive) | GI50 (OVCAR-4): 60 µM (inactive) | GI50 (CCRF-CEM): > 100 µM (inactive) | GI50 (BT-549): > 100 µM (inactive) | GI50 (PC-3): 73.8 µM (inactive) | GI50 (T47D): 41.9 µM (inactive) | GI50 (CAKI-1): > 100 µM (inactive) | GI50 (IGROV-1): 93.1 µM (inactive) | GI50 (786-0): 35.2 µM (inactive) | GI50 (OVCAR-5): > 100 µM (inactive) | GI50 (TK-10): 71 µM (inactive) | GI50 (MCF7): 71.1 µM (inactive) | GI50 (LOX IMVI): > 100 µM (inactive) | GI50 (SNB-19): > 100 µM (inactive) | GI50 (ACHN): 57.5 µM (inactive) | GI50 (MDA-MB-435): > 100 µM (inactive) | GI50 (SF-539): 48.5 µM (inactive) | GI50 (NCI-H522): 68.5 µM (inactive) | GI50 (KM12): > 100 µM (inactive) | GI50 (NCI-H226): 36.1 µM (inactive) | GI50 (MOLT-4): > 100 µM (inactive) | GI50 (NCI/ADR-RES): > 100 µM (inactive) | GI50 (A549): 88.7 µM (inactive) | GI50 (RPMI-8226): > 100 µM (inactive)

C=C(C)C1CC(=O)C(C)=C(O)C1 (stereo unspecified)
GI50 (U-251): > 100 µM (inactive) | GI50 (OVCAR-8): > 100 µM (inactive) | GI50 (SW-620): > 100 µM (inactive) | GI50 (SF-295): > 100 µM (inactive) | GI50 (HCT-116): > 100 µM (inactive) | GI50 (SK-MEL-28): > 100 µM (inactive) | GI50 (SK-MEL-5): > 100 µM (inactive) | GI50 (K562): > 100 µM (inactive) | GI50 (HL-60): > 100 µM (inactive) | GI50 (M14): > 100 µM (inactive) | GI50 (HCC 2998): > 100 µM (inactive) | GI50 (SK-OV-3): > 100 µM (inactive) | GI50 (NCI-H460): > 100 µM (inactive) | GI50 (SF-268): > 100 µM (inactive) | GI50 (DU-145): > 100 µM (inactive) | GI50 (SNB-75): > 100 µM (inactive) | GI50 (UO-31): > 100 µM (inactive) | GI50 (MDA-MB-231): > 100 µM (inactive) | GI50 (SN12C): > 100 µM (inactive) | GI50 (UACC-62): > 100 µM (inactive) | GI50 (SR): > 100 µM (inactive) | GI50 (EKVX): > 100 µM (inactive) | GI50 (Hs-578T): > 100 µM (inactive) | GI50 (HCT-15): > 100 µM | GI50 (UACC-257): > 100 µM (inactive) | GI50 (SK-MEL-2): > 100 µM (inactive) | GI50 (Malme-3M): > 100 µM (inactive) | GI50 (COLO 205): > 100 µM (inactive) | GI50 (OVCAR-4): > 100 µM (inactive) | GI50 (CCRF-CEM): > 100 µM (inactive) | GI50 (BT-549): > 100 µM (inactive) | GI50 (PC-3): > 100 µM (inactive) | GI50 (NCI-H23): > 100 µM (inactive) | GI50 (HOP-62): > 100 µM (inactive) | GI50 (T47D): > 100 µM (inactive) | GI50 (CAKI-1): > 100 µM (inactive) | GI50 (IGROV-1): > 100 µM (inactive) | GI50 (786-0): > 100 µM (inactive) | GI50 (OVCAR-5): > 100 µM (inactive) | GI50 (HT-29): > 100 µM (inactive) | GI50 (TK-10): > 100 µM (inactive) | GI50 (MDA-N): > 100 µM (inactive) | GI50 (MCF7): > 100 µM (inactive) | GI50 (LOX IMVI): > 100 µM (inactive) | GI50 (SNB-19): > 100 µM (inactive) | GI50 (ACHN): > 100 µM (inactive) | GI50 (SF-539): > 100 µM (inactive) | GI50 (NCI-H522): > 100 µM (inactive) | GI50 (KM12): > 100 µM (inactive) | GI50 (NCI-H226): > 100 µM (inactive) | GI50 (MOLT-4): > 100 µM (inactive) | GI50 (NCI/ADR-RES): > 100 µM (inactive) | GI50 (A549): > 100 µM (inactive)
